In this assay the target is mGluR5 (Homo sapiens, UniProt P41594). Nature of the assay: inhibition of the glutamate induced elevation of intracellular Ca2+ concentration. As to conditions: for inhibition at 10 µM: read-out: mGluR5 Activity inh. at 10 μM [%]; for mGluR5 Activity inh. at 10 μM [%]: inhibition of glutamate induced elevation of intracellular Ca2+ concentration at 10 μM.

Structures can show the parent of a compound that is named as a salt.

Chain of mGluR5 (P41594 21-1180 isoform P41594-2 limits assumed): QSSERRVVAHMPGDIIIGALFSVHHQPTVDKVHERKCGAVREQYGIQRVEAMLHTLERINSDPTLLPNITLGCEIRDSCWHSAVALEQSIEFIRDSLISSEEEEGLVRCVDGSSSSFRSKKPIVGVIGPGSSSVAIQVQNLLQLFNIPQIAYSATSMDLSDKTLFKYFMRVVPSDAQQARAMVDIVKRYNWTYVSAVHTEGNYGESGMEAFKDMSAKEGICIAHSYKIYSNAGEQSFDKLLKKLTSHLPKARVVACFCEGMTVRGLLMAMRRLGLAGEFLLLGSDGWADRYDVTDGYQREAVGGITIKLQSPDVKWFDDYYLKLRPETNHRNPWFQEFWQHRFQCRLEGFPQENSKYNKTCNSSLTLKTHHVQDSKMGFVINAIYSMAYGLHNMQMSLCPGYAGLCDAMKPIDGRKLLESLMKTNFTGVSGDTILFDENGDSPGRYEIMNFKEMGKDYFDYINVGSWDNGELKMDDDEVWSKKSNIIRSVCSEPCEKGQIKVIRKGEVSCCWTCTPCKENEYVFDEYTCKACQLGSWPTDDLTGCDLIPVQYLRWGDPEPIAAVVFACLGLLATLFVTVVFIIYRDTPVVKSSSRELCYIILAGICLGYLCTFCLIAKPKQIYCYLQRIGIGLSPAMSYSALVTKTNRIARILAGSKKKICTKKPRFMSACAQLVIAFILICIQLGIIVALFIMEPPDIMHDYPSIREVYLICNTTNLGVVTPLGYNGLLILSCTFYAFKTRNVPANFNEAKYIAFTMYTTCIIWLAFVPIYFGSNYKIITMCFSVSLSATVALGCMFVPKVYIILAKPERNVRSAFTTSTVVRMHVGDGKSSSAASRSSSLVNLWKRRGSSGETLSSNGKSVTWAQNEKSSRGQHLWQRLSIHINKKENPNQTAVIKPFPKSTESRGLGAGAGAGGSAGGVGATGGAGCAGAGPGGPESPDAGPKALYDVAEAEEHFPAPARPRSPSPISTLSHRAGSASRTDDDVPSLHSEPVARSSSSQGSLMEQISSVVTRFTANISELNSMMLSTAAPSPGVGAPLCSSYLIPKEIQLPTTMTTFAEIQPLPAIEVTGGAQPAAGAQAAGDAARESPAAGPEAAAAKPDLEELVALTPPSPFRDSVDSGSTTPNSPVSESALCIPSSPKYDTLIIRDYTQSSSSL
Description: This can be determined in vitro for example at recombinant human metabotropic glutamate receptors, especially PLC-coupled subtypes thereof such as mGluR5, using different procedures like, for example, measurement of the inhibition of the agonist induced elevation of intracellular Ca^2+ concentration in accordance with L. P. Daggett et al., Neuropharm.

Regarding `Cc1ccc(Nc2ncc(C(=O)N3CCCC[C@H]3C(C)C)cc2Cl)cn1` [Compound 4.30, [5-Chloro-6-(6-methyl-pyridin-3-ylamino)-pyridin-3-yl]-((S)-2-isopropyl-piperidin-1-yl)-methanone], the inhibition at 10 µM turned out to be 96%.

Turning to `COc1ccc(Nc2ccc(C(=O)N3CCOCC3)cn2)cc1` [Compound 1.18, [6-(4-Methoxy-phenylamino)-pyridin-3-yl]-morpholin-4-yl-methanone hydrochloride], the inhibition at 10 µM came to 32%.

For the compound `CC[C@@H]1CCCCN1C(=O)c1cnc(Nc2ccc(C(F)(F)F)nc2)c(Cl)c1` [Compound 2.23, [5-Chloro-6-(6-trifluoromethyl-pyridin-3-ylamino)-pyridin-3-yl]-((R)-2-ethyl-piperidin-1-yl)-methanone], the inhibition at 10 µM is 100%.

`Cc1ccc(Oc2ncc(C(=O)N3CCCC(C)C3)cc2Cl)cn1` (racemic) [Compound 3.1, rac-[5-Chloro-6-(6-methyl-pyridin-3-yloxy)-pyridin-3-yl]-(3-methyl-piperidin-1-yl)-methanone]: the inhibition at 10 µM is 94%.

As for `COc1ccc(Nc2ncc(C(=O)N3CCCC(C)C3)cc2Cl)cn1` (racemic) [Compound 2.6, rac-[5-Chloro-6-(6-methoxy-pyridin-3-ylamino)-pyridin-3-yl]-(3-methyl-piperidin-1-yl)-methanone], the inhibition at 10 µM is 98%.

In the case of `CCOc1cc(C(=O)N2CCCCCC2)cnc1Nc1ccc(Cl)cc1` [Compound 6.5, Azepan-1-yl-[6-(4-chloro-phenylamino)-5-ethoxy-pyridin-3-yl]-methanone], the inhibition at 10 µM came out at 33%.

As to `Cc1ccc(Nc2ccc(C(=O)N3C[C@@H](C)O[C@@H](C)C3)cn2)cc1` [Compound 1.20, (cis-2,6-Dimethyl-morpholin-4-yl)-(6-p-tolylamino-pyridin-3-yl)-methanone hydrochloride], the inhibition at 10 µM stood at 95%.

`O=C(c1ccc(Nc2ccc(OC(F)(F)F)cc2)nc1)N1CCCCC1` [Compound 1.8, Piperidin-1-yl-[6-(4-trifluoromethoxy-phenylamino)-pyridin-3-yl]-methanone]: the inhibition at 10 µM worked out at 54%.

`CCC(CC)C1CCCCN1C(=O)c1cnc(Nc2ccc(C)nc2)c(Cl)c1` (centres unmarked) [Compound 4.39, [5-Chloro-6-(6-methyl-pyridin-3-ylamino)-pyridin-3-yl]-[2-(1-ethyl-propyl)-piperidin-1-yl]-methanone]: the inhibition at 10 µM was 96%.

For the compound `CCC(CC)C1OCCCCN1C(=O)c1cnc(Nc2ccc(C)nc2)c(Cl)c1` (centres unmarked) [Compound 4.67, [5-Chloro-6-(6-methyl-pyridin-3-ylamino)-pyridin-3-yl]-[2-(1-ethyl-propyl)-[1,3]oxazepan-3-yl]-methanone], the inhibition at 10 µM came out at 95%.

Take `Cc1ccc(Nc2ncc(C(=O)N3CCCCC3CC(C)F)cc2Cl)cn1` (centres unmarked) [Compound 4.64, [5-Chloro-6-(6-methyl-pyridin-3-ylamino)-pyridin-3-yl]-[2-(2-fluoro-propyl)-piperidin-1-yl]-methanone]: the inhibition at 10 µM is 99%.

On to `COc1ccc(Nc2ccc(C(=O)N3C[C@@H](C)O[C@@H](C)C3)cn2)cc1.Cl` [Compound 1.21, (cis-Z 6-Dimethyl-morpholin-4-yl)-[6-(4-methoxy-phenylamino)-pyridin-3-yl]-methanone hydrochloride], for which the “mGluR5 Activity inh. at 10 μM [%]” value was 57%.

For `Cc1ccc(Nc2ncc(C(=O)N3C(C)(C)CCCC3(C)C)cc2Cl)cn1` [Compound 4.49, [5-Chloro-6-(6-methyl-pyridin-3-ylamino)-pyridin-3-yl]-(2,2,6,6-tetramethyl-piperidin-1-yl)-methanone], the inhibition at 10 µM turned out to be 66%.

Regarding `Cc1ccc(Nc2ccc(C(=O)N3CCCC(C)C3)cn2)cc1` (centres unmarked) [Compound 1.13], the “mGluR5 Activity inh. at 10 μM [%]” value turned out to be 96%.

Regarding `COC1CCCN(C(=O)c2ccc(Nc3ccc(Cl)cc3)nc2)C1` (racemic) [Compound 4.7, rac-[6-(4-Chloro-phenylamino)-pyridin-3-yl]-(3-methoxy-piperidin-1-yl)-methanone], the inhibition at 10 µM worked out at 87%.

For `CC1CCCN(C(=O)c2ccc(Nc3cccc(Cl)c3)nc2)C1` (centres unmarked) [Compound 1.16, [6-(3-Chloro-phenylamino)-pyridin-3-yl]-(3-methyl-piperidin-1-yl)-methanone hydrochloride], the inhibition at 10 µM is 54%.

In the case of `C[C@@H]1CCCN(C(=O)c2ccc(Nc3ccc(Cl)cc3)nc2)C1` [Compound 1.12b, [6-(4-Chloro-phenylamino)-pyridin-3-yl]-(R-3-methyl-piperidin-1-yl)-methanone], the inhibition at 10 µM is 100%.

For the origin of these results see patent US20090005363A1, “Organic Compounds” (priority 2005, published 2009).
